Experimental data as given in patent US5294618A, “Octahydrobenzisoquinoline derivatives as antipsychotic agents” (Merck Sharp & Dohme Limited, priority 1989, dated 1994).

Assays:
[1] = target: T1, sigma sites (Mus musculus, UniProt O55242); assay: Displacement of tritiated (+)-SKF 10047 sigma ligand in vivo; details: sc, s.c. dosing, read-out: effective dose for displacing 50% of ligand (ED50)
T1 construct: displace tritiated sigma ligands in vivo; from tissue; host or cells: sites in the living animal after s.c. dosing
T1 sequence (O55242 whole entry): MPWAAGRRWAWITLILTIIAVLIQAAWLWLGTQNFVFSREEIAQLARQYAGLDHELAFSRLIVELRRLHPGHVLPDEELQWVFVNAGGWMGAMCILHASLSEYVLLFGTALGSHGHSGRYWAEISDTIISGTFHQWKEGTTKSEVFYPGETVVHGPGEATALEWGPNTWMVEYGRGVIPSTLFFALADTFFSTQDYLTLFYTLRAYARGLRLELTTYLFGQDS
Description: The ability of the test compounds to displace tritiated sigma ligands in vivo was determined by a modification of the method of Ferris et al., Life Sci., 1986, 38, 2329. In these experiments the sigma ligand used was tritiated (+)-SKF 10047.

[2] = Indian J. Chem., Sect. B, 1979, 17, 239; cited from earlier work
[3] = system: sigma recognition site; details: cited from earlier work
[4] = system: N-methyl-D-aspartate (NMDA) ion-channel complex; details: cited from earlier work
[5] = system: dopamine D2 receptors; details: cited from earlier work

Compound: CCCCN1CC[C@H]2c3ccccc3CC[C@@H]2C1 (relative stereo) [Example 2, trans-3-Butyl-1,2,3,4,4a,5,6,10b-octahydrobenz[f]isoquinoline]
- ED50 [1]: < 1 mg/kg

Compound: c1ccc2c(c1)CC[C@@H]1CN(C3CCCCC3)CC[C@@H]21 (relative stereo) [Example 4, trans-3-Cyclohexyl-1,2,3,4,4a,5,6,10b-octahydrobenz[f]isoquinoline]
- ED50 [1]: < 1 mg/kg

Compound: O=C(CCCN1CCC2c3ccccc3CCC2C1)c1ccc(F)cc1 (stereo not drawn) [3-[3-(4-fluorobenzoyl)propyl]-1,2,3,4,4a,5,6,10b-octahydrobenz[f]isoquinoline]
- CNS depressant activity [2]: weak CNS depressant activity
- hypotensive activity [2]: significant hypotensive activity

Compound: C=CCN1CCC2(C)c3cc(O)ccc3CC1C2C (stereo not drawn) [N-allylnormetazocine (SKF 10047), N-allylnormetazocine]
- potency/affinity at sigma sites [3]: having an affinity
- interaction with NMDA ion-channel complex [4]: interacts strongly

Compound: O=C(CCCN1CCC(O)(c2ccc(Cl)cc2)CC1)c1ccc(F)cc1 [haloperidol]
- relative potency at sigma sites versus D2 receptors ([3]; sigma sites and D2 receptors): equally potently

Compound: C[C@@H]1CN(CCCn2c3ccccc3c3ccccc32)C[C@H](C)N1 [rimcazole]
- potency/affinity at sigma sites [3]: only moderate potency
- activity at dopamine D2 receptors [5]: essentially inactive
